# Structures can show the parent of a compound that is named as a salt. Where two headings read alike, the source gives them in different places.
# Legend:
# MPO [1] = target: T1, MPO (Homo sapiens, UniProt P05164); conditions: in vitro; cited from earlier work
# T1 sequence (P05164 49-745): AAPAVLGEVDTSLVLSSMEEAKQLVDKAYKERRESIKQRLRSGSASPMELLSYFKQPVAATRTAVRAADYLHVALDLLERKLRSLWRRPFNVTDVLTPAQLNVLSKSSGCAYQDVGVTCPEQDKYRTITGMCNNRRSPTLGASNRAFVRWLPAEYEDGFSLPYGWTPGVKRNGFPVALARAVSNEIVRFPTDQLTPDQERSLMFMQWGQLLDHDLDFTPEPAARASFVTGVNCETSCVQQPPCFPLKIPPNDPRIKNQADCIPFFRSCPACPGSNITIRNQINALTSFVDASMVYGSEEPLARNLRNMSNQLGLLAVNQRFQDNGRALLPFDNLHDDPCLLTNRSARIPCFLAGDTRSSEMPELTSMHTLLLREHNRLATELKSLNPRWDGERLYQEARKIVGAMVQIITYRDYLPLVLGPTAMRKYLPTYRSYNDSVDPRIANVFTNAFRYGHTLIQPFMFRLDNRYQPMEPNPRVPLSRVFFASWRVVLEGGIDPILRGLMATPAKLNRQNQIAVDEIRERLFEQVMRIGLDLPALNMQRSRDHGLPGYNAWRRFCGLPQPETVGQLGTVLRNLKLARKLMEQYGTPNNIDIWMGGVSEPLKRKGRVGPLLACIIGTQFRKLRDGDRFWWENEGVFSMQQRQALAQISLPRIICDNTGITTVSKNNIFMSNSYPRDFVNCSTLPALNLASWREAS
# MPO [2] = target: T1, MPO; design: host or cells: transgenic mice overexpressing human MPO; conditions: in vivo, transgenic mice with overexpression of human MPO; cited from earlier work
# MPO [3] = target: T1, MPO; experiment: In vitro color change (oligomerization) with MPO; format: biochemical; conditions: 2 mM, 37° C., 1 hr
# Method: (§1) Each vial contains 2 mM of ^19F compound 9 in PBS (150 uL, 5% DMSO) and the following agents, and was incubated at 37° C. for 1 hr: • Vial 1: control (2 mM 19F […] only) • Vial 2: Glucose (6 μL, 1M), GOX (4 μL, 1 mg/mL); • Vial 3: H2O2 (2 μL), HRP (horseradish peroxidase, 1 μL); • Vial 4: H2O2(2 μL), MPO (10 μL): • Vial 5: H2O2 (2 μL), MPO (10 μL);
# [4] = tested on: HRP (horseradish peroxidase); experiment: In vitro color change (oligomerization) with horseradish peroxidase; format: biochemical; conditions: Vial 3: H2O2, HRP; 2 mM, 37° C., 1 hr
# Method: as §1
# [5] = Solubility of the hydrochloric acid salt; format: physicochemical; conditions: hydrochloric acid salt after Boc de-protection with 1M HCl
# MPO activity [6] = target: T2, MPO activity (Mus musculus, UniProt P11247); experiment: Staining of fresh-frozen ex vivo brain sections with Compound 3 and SA-647; conditions: Compound 3 followed by SA-647
# T2 construct: from tissue; host or cells: C57Bl/6J mice: PMA-treated hind-paw, salmonella brain abscess (slices and frozen sections), S. pneumoniae cellulitis of the thigh
# T2 sequence (P11247 139-718): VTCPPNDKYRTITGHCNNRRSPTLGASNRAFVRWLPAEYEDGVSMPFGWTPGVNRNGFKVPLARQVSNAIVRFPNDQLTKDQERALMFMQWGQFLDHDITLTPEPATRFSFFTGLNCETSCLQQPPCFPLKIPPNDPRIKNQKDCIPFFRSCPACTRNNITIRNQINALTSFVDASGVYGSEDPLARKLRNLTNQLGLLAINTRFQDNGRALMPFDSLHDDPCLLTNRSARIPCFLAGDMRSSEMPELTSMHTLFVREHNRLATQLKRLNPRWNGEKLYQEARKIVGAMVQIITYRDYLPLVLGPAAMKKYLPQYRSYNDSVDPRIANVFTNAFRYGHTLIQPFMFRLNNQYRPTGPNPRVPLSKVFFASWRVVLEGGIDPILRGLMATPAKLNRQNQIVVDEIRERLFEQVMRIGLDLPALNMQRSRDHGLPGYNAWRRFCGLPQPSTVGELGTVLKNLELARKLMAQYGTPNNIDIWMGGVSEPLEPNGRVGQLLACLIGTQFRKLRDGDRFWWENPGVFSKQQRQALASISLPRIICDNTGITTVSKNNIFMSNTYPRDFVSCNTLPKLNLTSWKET
# Method: (§2) Female C57Bl/6J mice were then anesthetized and fixed in a stereotactic head frame (David Kopf Instruments, Tujunga, Calif.). 1-3×10^6 colony forming units (CFU) salmonella bacteria (ATCC #14028) were suspended in 2 μL PBS and slowly injected into the deep frontal white matter (2.0 mm lateral and 1.2 mm anterior to bregma) at a depth of 3.0 mm. 23 hours later, mice were injected intravenously with 2 nmol Compound 3 as above, followed by intravenous injection of SA-647. Mice were then anesthetized with Isoflurane and transcardially perfused with 20 mL of ice cold PBS. Brains were harvested and cut into 1 mm coronal slices using a brain slicer (Harvard Apparatus, Holliston, Mass.) and immediately underwent FRI as described above. Brains from mice injected with salmonella were also embedded in OCT (Sakura, Torrance, Calif.) and snap-frozen in chilled isopentane (Sigma) and stored at […] until sectioning. Serial 6 μm sections were cut on a cryostat (Thermo scientific). Sections were thawed at room temperature for 10-20 minutes and rehydrated in PBS for 10 minutes. Then sections were incubated in blocking buffer (1% horse serum in PBS) for 30 minutes at room temperature, and incubated with MPO specific probe diluted in incubation buffer (1% bovine serum albumin 1% normal donkey serum, 0.3% Triton X-100, and 0.01% sodium azide in PBS) overnight at 4° C. […]
# MPO activity [7] = target: T2, MPO activity; experiment: Brain abscess (salmonella), ex vivo FRI of coronal brain slices; format: in vivo; conditions: probe at 23 hours
# Method: as §2
# purified human MPO = target: T3, purified human MPO (Homo sapiens, UniProt P05164); experiment: Fluorescence molecular tomography (FMT) of MPO embedded in matrigel, sensitivity; format: in vivo, mouse; conditions: 2 nmol i.v. then SA-647, matrigel in thigh
# T3 construct: purchased Lee Biosolutions, St. Louis, Mo
# T3 sequence (P05164 49-745): T1 sequence (P05164 49-745)
# Source text: (§3) Four to ten weeks old female C57BL/6J or MPO-knockout mice (from Jackson Laboratories, Bar Harbor, Me.) were used for all animal experiments. Mice were fed biotin free diet for 5 days before imaging with fluorescence molecular tomography (FMT) or fluorescence […] imaging (FRI).
# To validate sensitivity of the Compound 3, different concentrations of purified human MPO (Lee Biosolutions, St. Louis, Mo.) and glucose oxidase (GOX, as a H2O2 donor, Affymetrix, Santa Clara, Calif.) were embedded in a mixture of matrigel (BD Bioscience, San Jose, Calif.) and minimal essential medium (MEM, Corning, Corning, N.Y.), and injected 400 μL of this mixture subcutaneously into the ventral aspect of the thigh. After 30 min, 2 nmol of Compound 3 in 100 μL phosphate buffered saline (PBS) was injected intravenously. One hour later, 25 μL of streptavidin AlexaFluor-647 (2 mg/mL, SA-647, Invitrogen, Carlsbad, Calif.) was injected intravenously, and FMT was performed every 15 minutes for a total of 60 minutes. Mice were imaged on a dedicated FMT system (Perkin Elmer, Waltham, Mass.) at 635 nm excitation and 655 nm emission.
# MPO [8] = target: T4, MPO (Mus musculus, UniProt P11247); experiment: CNR of Compound 3 in dermatitis, CNS abscess and cellulitis models; format: in vivo; design: from tissue; conditions: detection of dermatitis
# T4 sequence (P11247 139-718): T2 sequence (P11247 139-718)
# MPO [9] = target: T1, MPO; experiment: Fluorescence reflectance imaging (FRI) of GOX/MPO/ABAH in matrigel, specificity; format: in vivo, mouse; conditions: 2 nmol i.v. then SA-647
# Source text: as §3
# MPO activity [10] = experiment: Irritant contact dermatitis (PMA) in vivo FRI; design: species or system mouse
# Method: Female C57Bl/6J (wildtype, Jackson laboratories, Bar Harbor, Me.) and MPO-knockout (KO, Jackson laboratories) mice were treated topically with 0.08 μmol Phorbol 12-myristate 13-acetate (PMA, Sigma, St. Louis, Mo.) on one hind-paw and with vehicle on the other to induce irritant contact dermatitis. This model is well described in the literature and triggers rapid inflammation with influx of neutrophils into the skin. 6 hours after induction, mice were injected intravenously with either 2 nmol of Compound 3 or the non-specific analogue, Compound 18. 1 hour later, 2.5 μg SA-647 was injected intravenously to bind to the biotinylated Compound 3. Mice underwent in vivo imaging using a dedicated in vivo FRI system as described above in Example 11.
# MPO activity [11] = target: T2, MPO activity; experiment: Bacterial cellulitis (Streptococcus pneumoniae), in vivo FRI of neutrophil extracellular traps
# Method: Female C57Bl/6J mice were injected subcutaneously at the dorsal aspect of the thigh with 10^8 CFU of Streptococcus pneumonia (SPn, ATCC #6303) to induce bacterial cellulitis. 6 hours after induction, mice were injected intravenously with 2 nmol of […]. 1 hour later, 2.5 μg Strepavidin-AlexaFluor-647 were injected intravenously to bind to the biotinylated Compound 3. To distinguish neutrophil granule release (where MPO and other granule proteins are secreted into the phagosome or extracellular space) from NET formation (where chromatin strands with MPO are released by neutrophils), 1 μg of the membrane-impermeable DNA dye Sytox Green (Invitrogen) was injected intravenously at the same time. Mice then underwent in vivo imaging using a dedicated FRI system as described above in Example 11. AlexaFluor-647 bound to MPO-sensor was detected at 595-635 nm excitation and 675/50 nm emission. Sytox Green was detected at 460-490 nm excitation and 530/40 nm emission.
compound,measurement,setting,value
sulfonaphthoaminophenyl fluorescein [SNAPF],CNR,MPO [1],around 1.4
same,CNR,MPO [2],~1.6
"O=C(Cc1c[nH]c2ccc(O)cc12)N[C@@H](Cc1c[nH]c2ccc(O)cc12)C(=O)NCCOCCOCCF [Compound 8, (S)—N-(2-(2-(2-fluoroethoxy)ethoxy)ethyl)-3-(5-hydroxy-1H-indol-3-yl)-2-(2-(5-hydroxy-1H-indol-3-yl)acetamido)propanamide]",Color change,"MPO [3]; Vial 2: Glucose, GOX, no MPO",no color change
same,Color change,"MPO [3]; Vials 4 and 5: H2O2, MPO",turned to yellow or brown
same,Color change,[4],turned to yellow or brown
"CN(C)CCCC[C@H](NC(=O)[C@H](Cc1c[nH]c2ccc(O)cc12)NC(=O)Cc1c[nH]c2ccc(O)cc12)C(=O)NCCOCCOCC[18F] [Example 18, (S)-6-(dimethylamino)-N-(2-(2-(2-fluoro-^18F)ethoxy)ethoxy)ethyl)-2-((S)-3-(5-hydroxy-1H-indol-3-yl)-2-(2-(5-hydroxy-1H-indol-3-yl)acetamido)propanamido)hexanamide hydrochloric acid salt]",Solubility,[5],increased solubility
"O=C(CCCC[C@@H]1SC[C@@H]2NC(=O)N[C@@H]21)N[C@@H](Cc1c[nH]c2ccc(O)cc12)C(=O)NCCc1c[nH]c2ccc(O)cc12 [Compound 3, N—((S)-3-(5-hydroxy-1H-indol-3-yl)-1-((2-(5-hydroxy-1H-indol-3-yl)ethyl)amino)-1-oxopropan-2-yl)-5-((3aS,4S,6aR)-2-oxohexahydro-1H-thieno[3,4-d]imidazol-4-yl)pentanamide]",Fluorescent signal on abscess and control sections,MPO activity [6],increased fluorescent signal consistent with MPO activity in the ipsilateral hemisphere but not the contralateral hemisphere
same,"Fluorescence intensity, contralateral hemisphere (mean value)",MPO activity [7],10972 RFU
same,"Fluorescence intensity, ipsilateral hemisphere (mean value)",MPO activity [7],43242 RFU
same,FMT fluorescence signal versus MPO concentration,purified human MPO,linear increase in signal
same,CNR,MPO [8],approximately 4
same,FRI fluorescence signal in absence of both MPO and GOX,MPO [9],no appreciable fluorescence
same,FRI fluorescence signal with MPO and GOX in matrigel,MPO [9],increased fluorescent signal
same,FRI fluorescence signal with MPO but without GOX,MPO [9],no fluorescence was detectible
same,"Fluorescence intensity, PMA-treated hind-paw",MPO activity [10]; MPO-KO mice,36.9±9.8 RFU
same,"Fluorescence intensity, vehicle-treated hind-paw",MPO activity [10]; MPO-KO mice,43.9±10.8 RFU
same,"Fluorescence intensity, PMA-treated hind-paw",MPO activity [10]; wildtype mice,130.5±4.7 RFU
same,"Fluorescence intensity, vehicle-treated hind-paw",MPO activity [10]; wildtype mice,34.4±8.6 RFU
same,"Fluorescence signal, side injected with PBS",MPO activity [11]; contralateral thigh,49.4±15.5 RFUs
same,"Fluorescence signal, side injected with SPn","MPO activity [11]; thigh, 6 hours after induction",212.5±22.9 RFU
